Experimental data reported in PMC12152883, “Bile acids inhibit equilibrative adenosine transport to alter adenosine receptor signaling in cholestasis” (The Journal of Biological Chemistry, 2025).

Legend:
[1] = target: T1, ENT2 (Homo sapiens, UniProt Q14542); experiment: Radiolabeled BA transport in ENT2 mRNA-injected Xenopus oocytes; assay type: cell-based; design: expressed in transfected cells; host or cells: Xenopus laevis oocytes injected with in vitro-transcribed capped mRNA from pOX-hENT2; settings: for fold increased transport activity compared with H2O-injected oocytes: 3H-labelled BA, Na+-containing buffer, pH 7.4
T1 sequence (Q14542 1-456): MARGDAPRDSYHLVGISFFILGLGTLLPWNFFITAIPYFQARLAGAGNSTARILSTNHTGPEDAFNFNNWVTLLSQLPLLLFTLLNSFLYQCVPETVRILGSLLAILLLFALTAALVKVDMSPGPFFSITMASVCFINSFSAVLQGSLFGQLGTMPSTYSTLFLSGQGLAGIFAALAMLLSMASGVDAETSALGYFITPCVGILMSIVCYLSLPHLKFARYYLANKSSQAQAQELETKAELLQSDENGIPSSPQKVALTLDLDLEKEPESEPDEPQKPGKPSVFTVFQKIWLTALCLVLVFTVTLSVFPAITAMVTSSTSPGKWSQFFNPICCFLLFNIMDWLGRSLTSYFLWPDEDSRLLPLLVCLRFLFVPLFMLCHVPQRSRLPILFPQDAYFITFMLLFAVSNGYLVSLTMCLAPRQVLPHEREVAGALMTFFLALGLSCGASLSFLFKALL
Description: We used a Xenopus oocyte-based transport assay that was previously used to examine BA transport by plasma membrane–directed ENT3 with a truncated N-terminus (that harbors lysosomal targeting motif) to experimentally verify whether ENT2 is capable of translocating BAs across the cell membrane ([24]). We tested both ENT1 and ENT2 along with CNT2, a purine nucleoside-specific concentrative transporter, to investigate their capacities to transport radiolabeled BAs. […] Transport was measured at pH 7.4, which is the closest pH to the pH of the extracellular fluid in which cells are exposed to solutes such as BAs to conduct plasma membrane transport ([29]).
The generated pOX expression constructs were linearized with either the Not1 or Sac1 restriction enzymes. The digested products were purified via phenol‒chloroform extraction. The mRNAs were synthesized using mMESSAGE mMACHINE (Ambion) transcription kits according to the manufacturer’s instructions. The mRNAs were purified via lithium precipitation. Oocytes were procured from Ecocyte. Prior to experiments, procured oocytes were defolliculated by treating with collagenase A-OR II solution followed by washing with Barth’s solution. Following microscopic verification, selected oocytes were incubated to recover overnight at 25 °C in a shaker incubator. Fifty nanoliters (400–800 ng/μl) of equal amounts of mRNAs were injected into defolliculated oocytes the next day. Expression of plasmids was analyzed after RNA isolation from oocyte extracts and conducting qPCR analysis with gene-specific primers as described earlier ([30]). The injected oocytes were incubated at 15 °C for 24 h before transport assays were performed. The uptake of radiolabeled substrates was measured after a 30 min incubation in transport buffer (100 mM NaCl, 2 mM KCl, 1 mM CaCl2, 1 mM MgCl2, and 10 mM Hepes, pH 7.4) at room temperature. Uptake was terminated by washing the oocytes three times with arrest buffer containing 20 mM uridine. Individual oocytes were shaken overnight in 10% SDS for complete dissolution, and then the radioactivity was quantified with a Beckman liquid scintillation counter. The data are presented as the mean ± SD (n = 8–12 oocytes). A representative experiment from 3 to 5 independent experiments is presented.

[2] = test system: HepG2 cell line; experiment: 3H-nucleoside uptake inhibition by BAs in HepG2 cell line; assay type: cell-based; settings: BA 100 μM; for % Inhibition of Ado uptake, HepG2 cell line, Sodium buffer / % Inhibition of Ado uptake, HepG2 cell line, Sodium-free buffer: 3H-Ado 0.02 μM; for extent of inhibition of guanosine transport, HepG2 cells: 3H-guanosine 0.02 μM, Na+-free
Excerpt: In the presence of multiple substrates with similar affinities, the abundant substrate molecules can compete for binding to the transport sites, reducing the transport of the limiting substrate molecules ([31]). […] We tested the possibility of BA-mediated nucleoside transport inhibition using a HeLa cell line (expressing ENTs (ENT1, ENT2) ([32])) and a HepG2 cell line (expressing both ENTs (ENT1, ENT2) and CNTs (CNT1, CNT2) ([33])) to conduct Ado uptake inhibition assays in Na^+-containing (where both ENTs and CNTs are capable of transport) and Na^+-free (only ENTs are capable of transport) buffers (Fig. 3 and Table 1).
The bars represent the mean ± SD (n = 3). A representative experiment from 3 to 5 independent experiments is presented. Statistical analysis was performed using one-way ANOVA with Dunnett’s multiple comparisons test; ∗p < 0.032, ∗∗p < 0.0021, ∗∗∗p < 0.0002.
HeLa (CCL-2) and HepG2 (HB_8065) were procured from ATCC. Both cell lines were cultured in Eagle's minimum essential medium and Dulbecco's modified Eagle's medium, respectively, supplemented with 10% fetal bovine serum and penicillin-streptomycin (1X). After cells were tested free for mycoplasma contamination, they were plated in 24-well plates, and transport assays were conducted when the cells were 80% confluent. The cells were briefly rinsed with PBS, and then the uptake of radiolabeled substrates was measured after a 5 min incubation in sodium containing (130 mM NaCl, 20 mM Tris–HCl, 3 mM K2HPO4, 1 mM MgCl2.6H2O, 2 mM CaCl2, 5 mM glucose, pH 7.4) or sodium-free (130 mM N-methyl-D-glucamin, 20 mM Tris–HCl, 3 mM K2HPO4, 1 mM MgCl2.6H2O, 2 mM CaCl2, 5 mM glucose, pH 7.4) transport buffers at 37 °C. Uptake was terminated by washing the cells three times with ice-cold arrest buffer containing 20 mM uridine. The cells were shaken for 30 min in 10% SDS for complete dissolution, after which the radioactivity was quantified with a Beckman liquid scintillation counter. The data are presented as the mean ± SD (n = 3).

Row | Structure (SMILES) | Km ([1]; oocytes, Fig. 2B) [µM] | Vmax of BA transport by ENT2 ([1]; oocytes, Fig. 2B) [pmol/oocyte∗30 min] | pH dependence of 3H-CA transport mediated by ENT2 ([1]; pH 5.5 to pH 7.4) | % Inhibition of Ado uptake, HepG2 cell line, Sodium buffer [2] | % Inhibition of Ado uptake, HepG2 cell line, Sodium-free buffer [2] [%] | extent of inhibition of guanosine transport, HepG2 cells [2] [%] | fold increased transport activity compared with H2O-injected oocytes [1] [fold]
1 | C[C@H](CCC(=O)O)[C@H]1CC[C@H]2[C@@H]3[C@H](O)C[C@@H]4C[C@H](O)CC[C@]4(C)[C@H]3C[C@H](O)[C@]12C [CA, cholic acid] | ~195 | 2.84 | not dependent on pH | n.s. | 59.86 ± 0.19 | 12 | –
2 | C[C@H](CCC(=O)O)[C@H]1CC[C@H]2[C@@H]3CC[C@@H]4C[C@H](O)CC[C@]4(C)[C@H]3C[C@H](O)[C@]12C [DCA, deoxycholic acid] | – | 3.359 | – | n.s. | 49.36 ± 0.02 | 12 | 1.78
3 | C[C@H](CCC(=O)NCCS(=O)(=O)O)[C@H]1CC[C@H]2[C@@H]3[C@H](O)C[C@@H]4C[C@H](O)CC[C@]4(C)[C@H]3C[C@H](O)[C@]12C [TCA, taurocholic acid] | – | – | – | n.s. | 62.36 ± 0.03 | 17.5 | 2.23
